Source: US20100267749A1, “TRISUBSTITUTED FUROPYRIMIDINES AND USE THEREOF” (BAYER SCHERING PHARMA AKTIENGESELLSCHAFT, priority 2007, published 2010)

Target: T1, Prostacyclin Receptors (IP Receptors) of Human Thrombocyte Membranes (Homo sapiens, UniProt P43119)
T1 construct: Thrombocyte membranes are obtained by centrifuging 50 ml of human blood; tissue Maco Pharma, Langen (buffy coats); host or cells: human thrombocyte (platelet) membranes from human blood
Assay: Binding to prostacyclin receptors (IP receptors) of human thrombocyte membranes, 3H-Iloprost displacement
Settings: 3 nM 3H-Iloprost, 60 min, room temperature
Experimental: B-1. Studies of Binding to Prostacyclin Receptors (IP Receptors) of Human Thrombocyte Membranes
Thrombocyte membranes are obtained by centrifuging 50 ml of human blood (Buffy coats with CDP Stabilizer, from Maco Pharma, Langen) for 20 min at 160×g. Remove the supernatant (platelet-rich plasma, PRP) and then centrifuge again at 2000×g for 10 min at room temperature. Resuspend the sediment in 50 mM tris(hydroxymethyl)amino-methane, which has been adjusted to a pH of 7.4 with 1 N hydrochloric acid, and store at −20° C. overnight. On the next day, centrifuge the suspension at 80 000×g and 4° C. for 30 min. Discard the supernatant. Resuspend the sediment in 50 mM tris(hydroxy-methyl)aminomethane/hydrochloric acid, 0.25 mM ethylene diamine tetraacetic acid (EDTA), pH 7.4, and then centrifuge once again at 80 000×g and 4° C. for 30 min. Take up the membrane sediment in binding buffer (50 mM tris(hydroxymethyl)-aminomethane/hydrochloric acid, 5 mM magnesium chloride, pH 7.4) and store at −70° C. until the binding test.
For the binding test, incubate 3 nM ^3H-Iloprost (592 GBq/mmol, from AmershamBioscience) for 60 min with 300-1000 μg/ml of human thrombocyte membranes per charge (max. 0.2 ml) in the presence of the test substances at room temperature. After stopping, add cold binding buffer to the membranes and wash with 0.1% bovine serum albumin. After adding Ultima Gold Scintillator, quantify the radioactivity bound to the membranes using a scintillation counter. The nonspecific binding is defined as radioactivity in the presence of 1 μM Iloprost (from Cayman Chemical, Ann Arbor) and is as a rule <25% of the bound total radioactivity. The binding data (IC50 values) are determined using the program GraphPad Prism Version 3.02.

T1 sequence (P43119 whole entry): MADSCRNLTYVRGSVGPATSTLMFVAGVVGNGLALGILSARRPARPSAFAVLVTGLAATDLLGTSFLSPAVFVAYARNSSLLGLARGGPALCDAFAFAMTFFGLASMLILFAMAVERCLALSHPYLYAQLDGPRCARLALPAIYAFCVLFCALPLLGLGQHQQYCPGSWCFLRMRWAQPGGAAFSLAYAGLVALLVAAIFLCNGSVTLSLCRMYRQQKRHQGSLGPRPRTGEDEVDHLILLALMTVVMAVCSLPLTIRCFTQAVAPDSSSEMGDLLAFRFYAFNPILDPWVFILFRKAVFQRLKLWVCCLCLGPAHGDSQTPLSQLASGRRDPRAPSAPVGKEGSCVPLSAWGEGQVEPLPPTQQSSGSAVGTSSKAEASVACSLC

Row | Compound | IC50
1 | C=CCOC(=O)/C=C/c1c(-c2ccccc2)oc2ncnc(O[C@H](C)CCCCC(=O)O)c12 [Example 15] | 545 nM
2 | CCOC(=O)/C(C)=C/c1c(-c2ccccc2)oc2ncnc(O[C@H](C)CCCCC(=O)O)c12 [Example 16, (6R)-6-({5-[(1E)-3-ethoxy-2-methyl-3-oxoprop-1-en-1-yl]-6-phenylfuro[2,3-d]pyrimidin-4-yl}oxy)heptanoic acid] | 13 nM
3 | CCCC(=O)/C=C/c1c(-c2ccccc2)oc2ncnc(O[C@H](C)CCCCC(=O)O)c12 [Example 17] | 1050 nM
4 | CCCNC(=O)/C(C)=C/c1c(-c2ccccc2)oc2ncnc(O[C@H](C)CCCCC(=O)O)c12 [Example 21, (6R)-6-({5-[(1E)-2-methyl-3-oxo-3-(propylamino)prop-1-en-1-yl]-6-phenylfuro[2,3-d]pyrimidin-4-yl}oxy)heptanoic acid] | 132 nM
